The values that follow are results of earlier work, collected in PMC2924185 (Journal of the American Chemical Society, 2010).

Molecules are shown by their SMILES.

For this data set, the system named is panel of human protein kinases. The settings on record: for selectivity score: judged by similar criteria.

On to `Cc1ccc(-c2nn(C(C)(C)C)c3ncnc(N)c23)cc1` [PP1], for which the “potency among Src-family kinases (in words)” value is “significantly more potent against Src-family members Fyn, Hck, and Lyn than against Src itself”.
`CC(C)(C)n1nc(-c2ccc(Cl)cc2)c2c(N)ncnc21` [PP2]: the “potency among Src-family kinases (in words)” value is “significantly more potent against Src-family members Fyn, Hck, and Lyn than against Src itself”.
Turning to `CNC(=O)c1cc(Oc2ccc(NC(=O)Nc3ccc(Cl)c(C(F)(F)F)c3)cc2)ccn1` [sorafenib], the selectivity score is reported as 0.10.
For `CN[C@@H]1C[C@H]2O[C@@](C)([C@@H]1OC)n1c3ccccc3c3c4c(c5c6ccccc6n2c5c31)C(=O)NC4` [staurosporine], the selectivity score is recorded as 0.50.
